According to the supplement of paper PMC11061612:

Assays:
Assay in all cases: Bliss excess, mean over the matrix (fraction); higher = more synergy
[1] = system: PCI-30 (Head and Neck Carcinoma)
Outline: (§1)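 After 24 hours at 37°C and 5% CO2 in 1536-well plates, cells in DMEM/F12 or RPMI plus 10% FBS received two-drug dose matrices for 72 hours. Viability came from CellTiter-Glo 2.0 luminescence and was scaled as inhibition, anchored at 0 by vehicle wells and at 1 by blank wells. Combination Emax is taken as the second-highest inhibition in the matrix, and Bliss excess as the observed combination effect less EA + EB − EA·EB, with EA and EB the single-agent effects.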

Mewo (Melanoma) = system: Mewo (Melanoma)
Outline: as §1

NCI-H2795 (Mesothelioma) = system: NCI-H2795 (Mesothelioma)
Outline: as §1

[2] = system: HO-1-u-1 (Oral Cavity Carcinoma)
Outline: as §1

[3] = system: OVCAR-8 (Ovarian Carcinoma)
Outline: as §1

[4] = system: LoVo (Colorectal Carcinoma)
Outline: as §1

NCI-H28 (Mesothelioma) = system: NCI-H28 (Mesothelioma)
Outline: as §1

[5] = system: 639-V (Bladder Carcinoma)
Outline: as §1

[6] = system: CTB-1 (B-Cell Non-Hodgkin's Lymphoma)
Outline: as §1

[7] = system: RPMI-6666 (Non-Cancerous)
Outline: as §1

[8] = system: K5 (Thyroid Gland Carcinoma)
Outline: as §1

HMV-II (Melanoma) = system: HMV-II (Melanoma)
Outline: as §1

[9] = system: SK-OV-3 (Ovarian Carcinoma)
Outline: as §1

[10] = system: EN (Endometrial Carcinoma)
Outline: as §1

SH-4 (Melanoma) = system: SH-4 (Melanoma)
Outline: as §1

NCI-H2461 (Mesothelioma) = system: NCI-H2461 (Mesothelioma)
Outline: as §1

[11] = system: SW1271 (Small Cell Lung Carcinoma)
Outline: as §1

NB14 (Neuroblastoma) = system: NB14 (Neuroblastoma)
Outline: as §1

[12] = system: HARA (Squamous Cell Lung Carcinoma)
Outline: as §1

[13] = system: NCI-H69 (Small Cell Lung Carcinoma)
Outline: as §1

| Compound | Bliss excess [1] | Bliss excess (Mewo (Melanoma)) | Bliss excess (NCI-H2795 (Mesothelioma)) | Bliss excess [2] | Bliss excess [3] | Bliss excess [4] | Bliss excess (NCI-H28 (Mesothelioma)) | Bliss excess [5] | Bliss excess [6] | Bliss excess [7] | Bliss excess [8] | Bliss excess (HMV-II (Melanoma)) | Bliss excess [9] | Bliss excess [10] | Bliss excess (SH-4 (Melanoma)) | Bliss excess (NCI-H2461 (Mesothelioma)) | Bliss excess [11] | Bliss excess (NB14 (Neuroblastoma)) | Bliss excess [12] | Bliss excess [13] |
| --- | --- | --- | --- | --- | --- | --- | --- | --- | --- | --- | --- | --- | --- | --- | --- | --- | --- | --- | --- | --- |
| CCN(CCO)CCCOc1ccc2c(Nc3cc(CC(=O)Nc4cccc(F)c4)[nH]n3)ncnc2c1 [AZD2811] + C[C@@H]1COCCN1C2=NC(=NC(=C2)C3(CC3)[S@](=N)(=O)C)C4=C5C=CNC5=NC=C4 [AZD6738] (first compound max 1 µM, 7x7, partner max 10 µM) | -0.0516 | -0.0399 | -0.0517 | -0.023 | -0.0192 | -0.104 | -0.0554 | -0.0164 | -0.0826 | -0.0653 | -0.086 | -0.0395 | -0.117 | -0.0866 | -0.0474 | -0.0728 | -0.0829 | -0.0888 | 0.0144 | -0.0552 |
| COc1cccc(OCCCN)c1-c1cc(Nc2cnc(C#N)cn2)n[nH]1 [Prexasertib] + CN(C)CCCOc1ccc(-c2ccc3ncc4c(c3c2)n(C2CCOCC2)c(=O)n4C)cn1 [AZD0156] (first compound max 1 µM, 7x7, partner max 1 µM) | -0.0637 | 0.0034 | 0.05 | 0.0251 | 0.0133 | 0.0116 | -0.0307 | 0.0592 | 0.0109 | 0.0064 | -0.0339 | -0.0143 | -0.066 | -0.0459 | 0.0424 | -0.0647 | -0.0183 | -0.033 | -0.0038 | -0.081 |
| C[C@@H]1COCCN1c1cc(C2([S@](C)(=N)=O)CC2)nc(-c2ccnc3[nH]ccc23)n1 [AZD6738] + O=C(c1cc(Cc2n[nH]c(=O)c3ccccc23)ccc1F)N1CCN(C(=O)C2CC2)CC1 [Olaparib] (first compound max 10 µM, 7x7, partner max 10 µM) | -0.052 | -0.0368 | 0.053 | 0.0528 | 0.0495 | -0.0084 | 0.011 | 0.0684 | -0.0454 | -0.0839 | -0.0175 | -0.0296 | -0.0222 | -0.0479 | 0.0189 | -0.0214 | -0.016 | -0.0072 | 0.033 | -0.0283 |
| CC1(C)CCC(CN2CCN(c3ccc(C(=O)NS(=O)(=O)c4ccc(NCC5CCOCC5)c([N+](=O)[O-])c4)c(Oc4cnc5[nH]ccc5c4)c3)CC2)=C(c2ccc(Cl)cc2)C1 [Venetoclax] + Cc1cc2ncnn2cc1Nc1ncc2c(n1)n(C1CCOCC1)c(=O)n2C [AZD7648] (first compound max 1 µM, 7x7, partner max 10 µM) | -0.0545 | -0.0181 | -0.0113 | -0.0307 | -0.0014 | -0.0526 | -0.0166 | -0.0501 | -0.0638 | -0.0477 | -0.103 | -0.0407 | -0.134 | -0.0233 | -0.0039 | -0.0954 | -0.115 | -0.0033 | -0.03 | -0.0227 |
| CN(CCO)CC[C@H](CSc1ccccc1)Nc1ccc(S(=O)(=O)NC(=O)c2ccc(N3CCC([C@@H](O)c4ccccc4-c4ccc(Cl)cc4)CC3)cc2)cc1S(=O)(=O)C(F)(F)F [AZD4320] + C[C@@H]1COCCN1C2=NC(=NC(=C2)C3(CC3)[S@](=N)(=O)C)C4=C5C=CNC5=NC=C4 [AZD6738] (first compound max 1 µM, 7x7, partner max 10 µM) | -0.0223 | -0.0275 | 0.0173 | 0.021 | -0.0222 | -0.0355 | -0.0284 | -0.0022 | -0.0791 | -0.0271 | -0.0512 | -0.0476 | -0.0984 | -0.056 | -0.0411 | -0.0341 | -0.0085 | -0.0372 | -0.0319 | -0.0446 |
| CN(CCO)CC[C@H](CSc1ccccc1)Nc1ccc(S(=O)(=O)NC(=O)c2ccc(N3CCC([C@@H](O)c4ccccc4-c4ccc(Cl)cc4)CC3)cc2)cc1S(=O)(=O)C(F)(F)F [AZD4320] + CN(C)CCCOc1ccc(-c2ccc3ncc4c(c3c2)n(C2CCOCC2)c(=O)n4C)cn1 [AZD0156] (first compound max 1 µM, 7x7, partner max 1 µM) | -0.0931 | -0.0466 | -0.0596 | 0.0032 | -0.0434 | -0.0622 | -0.0693 | -0.0209 | -0.0376 | -0.0597 | -0.0779 | -0.0267 | -0.0364 | -0.0085 | -0.0238 | -0.0479 | -0.0413 | 0.061 | 0.0007 | -0.0465 |
| CCN(CCO)CCCOc1ccc2c(Nc3cc(CC(=O)Nc4cccc(F)c4)[nH]n3)ncnc2c1 [AZD2811] + C=CCn1c(=O)c2cnc(Nc3ccc(N4CCN(C)CC4)cc3)nc2n1-c1cccc(C(C)(C)O)n1 [AZD1775] (first compound max 1 µM, partner max 1 µM) | 0.0191 | -0.011 | -0.0117 | -0.0168 | 0.0213 | -0.0731 | -0.0541 | 0.0509 | 0.0011 | -0.0271 | -0.0062 | -0.0339 | -0.068 | -0.0426 | -0.0484 | -0.0679 | -0.02 | -0.0236 | -0.0086 | -0.0671 |
